Patent publication EP4813463A2, “TYK2 INHIBITORS AND COMPOSITIONS AND METHODS THEREOF” (Lynk Pharmaceuticals Co. Ltd., priority 2023, dated 2024)
pIC50: −log10 of the molar value. Values after ≈ are worked out from the molar mass of the structure shown. Like-named read-outs stand apart in the source and are kept apart here.

Columns and labels:
TYK2-JH2 domain = biological target: T1, TYK2-JH2 domain (Homo sapiens, UniProt P29597); assay: Binding activity test for JH2 domain of TYK2 (Tb-antibody/tracer FRET); conditions: for pIC50: JH2 domain enzyme, 60 min at 25°C, then 4°C overnight, read-out: TYK2 JH2 Binding IC50; for JAK1/TYK2 selectivity: ratio of JAK1 JH2 to TYK2 JH2 binding IC50
T1 construct: JAK1-JH2 domain or TYK2-JH2 domain enzyme in assay buffer
T1 sequence (P29597 589-875 limits assumed): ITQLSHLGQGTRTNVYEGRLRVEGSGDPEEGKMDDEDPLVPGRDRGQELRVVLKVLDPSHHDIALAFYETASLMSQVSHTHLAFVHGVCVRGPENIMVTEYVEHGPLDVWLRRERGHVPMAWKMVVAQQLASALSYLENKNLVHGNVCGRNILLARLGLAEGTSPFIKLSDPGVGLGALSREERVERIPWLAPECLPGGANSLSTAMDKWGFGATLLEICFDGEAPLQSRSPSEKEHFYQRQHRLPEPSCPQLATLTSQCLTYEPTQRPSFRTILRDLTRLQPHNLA
In short: (§1)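 IC50 values (nM) come from TR-FRET readings taken after a 25°C incubation followed by overnight at 4°C. Each well held JH2 domain protein, Tb-antibody, tracer and test compound titrated in 11 threefold steps, with DMSO high and low controls.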

JAK1-JH2 domain = biological target: T2, JAK1-JH2 domain (Homo sapiens, UniProt P23458); assay: Binding activity test for JH2 domain of JAK1 (Tb-antibody/tracer FRET); conditions: JH2 domain enzyme; 60 min at 25°C, then 4°C overnight; read-out: JAK1 JH2 Binding IC50
T2 construct: JAK1-JH2 domain or TYK2-JH2 domain enzyme in assay buffer
T2 sequence (P23458 583-855 limits assumed): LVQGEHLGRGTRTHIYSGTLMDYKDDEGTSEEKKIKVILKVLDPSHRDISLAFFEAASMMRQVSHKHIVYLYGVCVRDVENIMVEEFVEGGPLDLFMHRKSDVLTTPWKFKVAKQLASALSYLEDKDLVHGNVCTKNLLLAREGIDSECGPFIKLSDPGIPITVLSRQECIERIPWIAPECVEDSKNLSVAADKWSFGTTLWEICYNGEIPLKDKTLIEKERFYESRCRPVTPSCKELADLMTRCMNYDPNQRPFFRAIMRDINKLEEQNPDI
In short: as §1

[1] = tested on: Ba/F3-FL-TYK2-P760L cells; assay: Anti-proliferative assay in engineered Ba/F3 cells (Cell-Titer Glo, 72 h); format: cell-based; conditions: 72 h compound treatment, concentration that causes 50% growth inhibition, read-out: Baf3-FL-T2P760L
In short: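 IC50 from luminescent ATP viability after 72 h compound exposure (37 °C, 5% CO2), % inhibition normalised to DMSO-treated cells minus medium blank. IL-3-free Ba/F3-FL-TYK2-P760L (Tel-JAK fusion) cells in 10% FBS RPMI-1640 received 9 three-fold doses, top 20 µM, 0.1% DMSO.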

TYK2 pathway = assay: IFN-γ release in NK92 cells stimulated by IL-12 (ELISA); format: cell-based; conditions: IL-12 2.5ng/mL stimulation 15hrs, IFN-γ in supernatant by ELISA
Procedure: IFN-γ Release in NK92 Cells Stimulated by IL-12
Purpose: To evaluate the inhibition activity of TYK2 inhibitors in NK92 cells on TYK2 pathway through ELISA method.
Procedure: 1) Seeding NK92 cells into 96-well plate, cell density is 1.5E5 cells/well, 100uL/well; 2)Add prepared test articles into indicated wells, 50uL/well, and continue incubate for 1h, at 37°C; 3) After compound treatment, add 50uL/well IL-12 into indicated wells, final concentration of IL-12 is 2.5ng/mL; 4)Incubate cytokine stimulated cells at 37°C for another 15hrs in CO2 incubator; 5) After cytokine stimulation, transfer culture supernatant into a new plate and centrifuge for 5min at 350x g, and detect IFN-γ concentration in the supernatant with ELISA kit; 6) Data analysis with GrapdPad Prism6.0 software. Table 5. IC50 Values of Exemplary Compounds on TYK2 Pathway

pSTAT1 = assay: Phosphorylation inhibition of STAT in human whole blood (IFN-alpha stimulated, flow cytometry); format: cell-based; conditions: T-cell, 20 min, IFN-alpha stimulation 20 mins, CD3 T cells, read-out: pSTAT1 inhibition in hWB (IC50)
In short: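 Fresh human whole blood stimulated 20 min with human universal type I IFN-alpha, then fixed, permeabilised and stained for CD3 and pSTAT1 (Y701). pSTAT1 in T cells read by flow cytometry; IC50 from 4-parameter logistic fit.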

[2] = Microsomal metabolic stability assay; format: in vitro ADME; conditions: human, liver microsomes, pH 7.4, 0.5 mg/mL microsomal protein, 1 µM test article, 2 mM NADPH
In short: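 Test or control compound (1 µM) incubated with microsomes (0.5 mg/mL protein) in 100 mM potassium phosphate pH 7.4, 1.0 mM EDTA at 37°C, started with NADPH regenerating system (2 mM NADPH). Sampled at 0, 5, 15, 30, 45 min, acetonitrile-quenched, LC/MS/MS. T1/2 from ln %remaining vs time slope; CLint = 0.693/T1/2 per mg protein/mL.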

Kinetic solubility = format: physicochemical; conditions: phosphate buffer, pH 7.4, aqueous buffer, kinetic from dmso stock, 100 mM pH 7.4 phosphate buffer, 1% DMSO, room temperature, read-out: Kinetics Solubility_PBS7.4
In short: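 Compounds diluted from 10 mM/5 mM DMSO stocks into 100 mM phosphate buffer pH 7.4 (1% DMSO final), shaken 2 h at room temperature, then centrifuged. Dissolved compound in supernatant quantified by LC-MS/MS against a standard curve.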

[3] = Brain pharmacokinetic studies in rats; format: in vivo, Sprague-Dawley rats; conditions: for half-life / Kp / AUC: rats, iv, solution; for Kp: read-out: Brain AUC/Systemic AUC; for brain exposure in Rats: result in words
Procedure: Pharmacokinetic profiles of test articles were evaluated in fasted Sprague-Dawley rats. Different kinds of formulations were designed to ensure test articles fully dissolved and wouldn't precipitate in 1:10 SGF or FaSSIF dilution. Typically, Rats were dosed with 3 mg/kg and 5 mg/kg by intravenous injection and oral gavage, respectively. The animal was restrained manually at the designated time points, approximately 150 µL of blood sample was collected via jugular vein for serial bleeding into K2EDTA tubes. The blood samples were maintained in wet ice first and centrifuged to obtain plasma (2000g, 4°C, 5 min) within 30 minutes post sampling. Anesthetizing the rat with the Isoflurane vaporizer to 2%~3% and place its back on the operation table. Spread the animal limbs and pin the limbs on the operation table. Make a cut along the sternum about 4cm long, low enough to expose the sternum's end. Expose the heart and use a 25-gauge needle connected with a 20 mL syringe filled with 20 mL of cold saline to pierce the left ventricle. Maintain the placement of the needle, and slowly push the syringe plunger to wash the brain with saline. The perfusion will be finished within about 2 min and then take the brain out of the body carefully without damaging the tissue. Dry the tissue on filtrate paper, which should be placed on ice, and then weigh the brain tissue and store at -70 °C and analyzed by LC/MS/MS for quantification. PK parameter values, including, but not necessarily limited to, the maximum plasma concentrations (Cmax), and the area under the plasma concentration vs. time curve (AUC) from time zero to 24-hour (AUC0-24h) were determined using WinNonlin program. Table 13. Systemic Pharmacokinetic Parameters in Sprague-Dawley Rats

IFNa pSTAT1 = assay: Phosphorylation of STAT1 inhibition in HMC3 cells with HTRF assay; format: cell-based; conditions: Homo sapiens, HMC3 microglia cells, 50ng/mL hINFα 1 hour, read-out: HTRF_HMC3 IC 50 (IFNa pSTAT1)
Procedure: Seeding HMC3 cells into 96-well plate and incubate overnight. Pre-stimulation with recombinant human IFNα (Sino biological, H08Y), treat cells with compound with different concentration for 1hr. After compound treatment, stimulate cells with 50ng/mL hINFα for another 1 hour (for CCF-STTG1 cells IFNα induction time is 30 mins). After compound treatment and cytokine stimulation, dump old medium and lyse cells with supplemented lysis buffer provided by the HTRF kit (Revvity, 63ADK026PEG) for 30 min at room temperature under shaking. After homogenization by pipetting up and down, transfer 16 µL of cell lysate from the 96-well cell-culture plate to a small volume white 384-well plate, and then add 4 µL of pre-mixed two ready-to-use antibody working solution into each wells. Cover the plate with a plate sealer and incubate it overnight at room temperature. Read the fluorescence emission at two different wavelengths (665nm and 620nm) on microplate reader (Molecular Device, SpectraMax i3X). Collect data and analyzed with GraphPad Prism.

[4] = Sprague-Dawley, rat, brain, 3 mg/kg
[5] = Sprague-Dawley, rat, brain, 2 mg/kg

Row | SMILES | pIC50 (TYK2-JH2 domain) | JAK1/TYK2 selectivity (TYK2-JH2 domain) | pIC50 (JAK1-JH2 domain) | pIC50 (TYK2 pathway) | pIC50 (pSTAT1) | pIC50 ([1]; Mus musculus, BaF3, 72 h) | pIC50 (IFNa pSTAT1) | also measured
1 | [2H]C([2H])([2H])NC(=O)c1cnc(NC(=O)[C@@H]2C[C@@H]2F)cc1Nc1cnn2ccc(C(O)C(F)(F)F)c(OC)c12 (single isomer, unassigned) [Example 15A, 6-((1S,2S)-2-fluorocyclopropane-1-carboxamido)-4-((4-methoxy-5-((S*)-2,2,2-trifluoro-1-hydroxyethyl)pyrazolo[1,5-a]pyridin-3-yl)amino)-N-(methyl-d3)nicotinamide] | 10.11 | 160.8 | 7.90 | 7.80 | 7.46 | – | – | pIC50 [1]: 7.98; microsomal CLint at 1 µM ([2]; read-out: Human LM Clint): 11.9 µL/min/mg; half-life at 1 µM ([2]; read-out: Human LM T1/2): 116 min; solubility kinetic at 2 h (Kinetic solubility): 23.9 µM (≈ 11.9 µg/mL)
2 | COC(=O)c1cnc(NC(=O)C2CC2)cc1Nc1cnn2ccc([C@H](O)C(F)(F)F)c(OC)c12 [Example 26, Methyl (5)-6-(cyclopropanecarboxamido)-4-((4-methoxy-5-(2,2,2-trifluoro-1-hydroxyethyl)pyrazolo[1,5-a]pyridin-3-yl)amino)nicotinate] | 9.74 | 338.1 | 7.21 | 7.75 | – | 7.45 | – | half-life [3, 4]: 119 min; Kp [3, 4]: 0.11; half-life ([3]; Sprague-Dawley, rat, systemic (plasma), 3 mg/kg): 91.8 min; AUC ([3]; Sprague-Dawley, rat, systemic (plasma), 3 mg/kg, read-out: AUC): 1290 ng·h/mL; AUC ([3]; brain, 3 mg/kg): 140 ng·h/g; brain exposure in Rats [3]: good brain exposure
3 | CCC(=O)c1cnc(NC(=O)C2CC2)cc1Nc1ccn2nccc2c1OC [Example 195, N-[4-[(4-Methoxypyrazolo[1,5-a]pyridin-5-yl)amino]-5-propanoyl-2-pyridyl]cyclopropanecarboxamide, reference compound] | 8.53 | 22.68 | 7.17 | 5.82 | < 5.30 | 6.48 | – | –
4 | COCC(OC)c1ccc2c(c(Nc3cc(NC(=O)C4CC4)ncc3C(=O)OC)nn2C)c1OC (stereo not drawn) [Example 159, Methyl 6-(cyclopropanecarbonylamino)-4-[[5-(1,2-dimethoxyethyl)-4-methoxy-1-methyl-indazol-3-yl]amino]pyridine-3-carboxylate] | 9.69 | 40.45 | 8.09 | – | 6.89 | 8.20 | 10.09 | –
5 | CCn1nc(Nc2cc(NC(=O)C3CC3)ncc2C(=O)OC)c2c(OC)c(C(O)C(F)(F)F)ccc21 (single isomer, unassigned) [Example 70A, Methyl (S*)-6-(cyclopropanecarboxamido)-4-((1-ethyl-4-methoxy-5-(2,2,2-trifluoro-1-hydroxyethyl)-1H-indazol-3-yl)amino)nicotinate] | 9.82 | 145.12 | 7.66 | – | 7.36 | 8.63 | > 10.21 | –
6 | [2H]C([2H])([2H])NC(=O)c1cnc(NC(=O)C2CC2)cc1Nc1cnn2ccc([C@H](OC(C)=O)C(F)(F)F)c(OC)c12 [Example 43, (S)-1-(3-((2-(cyclopropanecarboxamido)-5-((methyl-d3)carbamoyl)pyridin-4-yl)amino)-4-methoxypyrazolo[1,5-a]pyridin-5-yl)-2,2,2-trifluoroethyl acetate] | 9.76 | 407.2 | 7.15 | 7.65 | 6.76 | 7.69 | – | solubility kinetic at 2 h (Kinetic solubility): 33.3 µM
7 | [2H]C([2H])([2H])CC(=O)c1cnc(NC(=O)C2CC2)cc1Nc1nn(C)c2ccc([C@H](O)C(F)(F)F)c(OC)c12 [Example 54A, (S)-N-(4-((4-methoxy-1-methyl-5-(2,2,2-trifluoro-1-hydroxyethyl)-1H-indazol-3-yl)amino)-5-(propanoyl-3,3,3-d3)pyridin-2-yl)cyclopropanecarboxamide] | 9.93 | 32.37 | 8.42 | – | 7.97 | 9.24 | > 10.21 | half-life [3, 5]: 98.4 min; Kp [3, 5]: 0.18; half-life ([3]; Sprague-Dawley, rat, systemic (plasma), 2 mg/kg): 102 min; AUC ([3]; Sprague-Dawley, rat, systemic (plasma), 2 mg/kg, read-out: AUC): 1060 ng·h/mL; AUC ([3]; brain, 2 mg/kg): 188 ng·h/g; brain exposure in Rats [3]: good brain exposure
